The text below walks through data of US8871208B2, “11-β-hydroxysteroid dehydrogenase type 1 (11β-HSD1) inhibitors and uses thereof” (AbbVie Inc., priority 2009, dated 2014).

In test [1] the target is T1, truncated human 11β-HSD-1 enzyme (24-287AA) (Homo sapiens, UniProt P28845).
T1 construct: truncated human 11β-HSD-1 enzyme (24-287AA); made in house; host or cells: E. coli (lysate)
The test can be described thus: Human 11β-HSD-1 enzymatic SPA assay. In kind it is biochemical. How it is done: (§1) The ability of test compounds to inhibit human 11β-HSD-1 enzymatic activity in vitro was evaluated in a Scintillation Proximity Assay (SPA). […] The reaction was stopped by adding a non-specific 11β-HSD inhibitor, 18β-glycyrrhetinic acid. The tritiated cortisol was captured by a mixture of an anti-cortisol monoclonal antibody and SPA beads coated with anti-mouse antibodies. The reaction plate was shaken at room temperature and the radioactivity bound to SPA beads was then measured on a β-scintillation counter. The 11β-HSD-1 assay was carried out in 96-well microtiter plates in a total volume of 220 μl. […] In order to drive the reaction in the forward direction, 1 mM G-6-P was also added. Solid compound was dissolved in DMSO to make a 10 mM stock followed by a subsequent 10-fold dilution with 3% DMSO in Tris/EDTA buffer (pH 7.4). 22 μl of titrated compounds was then added in triplicate to the substrate. Reactions were initiated by the addition of 10 μl of 0.1 mg/ml E. coli lysates overexpressing 11β-HSD-1 enzyme. After shaking and incubating plates for 30 minutes at room temperature, reactions were stopped by adding 10 μl of 1 mM glycyrrhetinic acid. The product, tritiated cortisol, was captured by adding 10 μl of 1 μM monoclonal anti-cortisol antibodies and 100 μl SPA beads coated with anti-mouse antibodies. After shaking for 30 minutes, plates were read on a liquid scintillation counter Topcount. Percent inhibition was calculated based on the background and the maximal signal. Wells that contained substrate without compound or enzyme were used as the background, while the wells that contained substrate and enzyme without any compound were considered as maximal signal. Percent of inhibition of each compound was calculated relative to the maximal signal and IC50 curves were generated. This assay was applied to 11β-HSD-2 as well, whereby tritiated cortisol and NAD^+ were used as substrate and cofactor, respectively.

The target in the next test is T2, human 11β-HSD-2 (Homo sapiens, UniProt P80365).
T2 sequence (P80365 1-405): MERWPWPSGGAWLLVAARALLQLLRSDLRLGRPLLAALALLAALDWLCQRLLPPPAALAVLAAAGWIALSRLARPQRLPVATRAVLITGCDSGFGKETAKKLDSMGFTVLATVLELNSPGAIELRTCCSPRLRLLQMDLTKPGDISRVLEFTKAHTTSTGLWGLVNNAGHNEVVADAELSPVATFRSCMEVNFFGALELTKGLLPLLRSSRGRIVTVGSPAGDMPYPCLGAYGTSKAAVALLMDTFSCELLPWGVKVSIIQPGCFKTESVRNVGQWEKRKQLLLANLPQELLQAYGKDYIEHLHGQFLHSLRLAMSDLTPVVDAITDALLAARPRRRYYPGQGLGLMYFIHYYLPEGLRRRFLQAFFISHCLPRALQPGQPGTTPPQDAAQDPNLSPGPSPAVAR
As to the kind of experiment: Human 11β-HSD-2 enzymatic SPA assay. The settings on record: human enzyme, SPA. The class given is biochemical. The protocol: as §1

SMILES strings stand for the structures. Like-named read-outs stand apart in the source and are kept apart here.

T1 sequence (P28845 24-287): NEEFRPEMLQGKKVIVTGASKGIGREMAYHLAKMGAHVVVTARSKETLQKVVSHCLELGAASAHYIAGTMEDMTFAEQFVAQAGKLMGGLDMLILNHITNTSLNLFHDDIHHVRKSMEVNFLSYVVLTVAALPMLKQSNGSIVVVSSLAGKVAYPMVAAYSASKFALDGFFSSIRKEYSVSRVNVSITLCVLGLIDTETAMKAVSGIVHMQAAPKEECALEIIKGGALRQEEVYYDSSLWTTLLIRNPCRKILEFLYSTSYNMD

The IC50 is the point on the concentration scale where inhibition reaches its midpoint. Low readings indicate greater potency, high ones weaker potency. As to `CC(C)(C(=O)N[C@@H]1[C@@H]2C[C@@H]3C[C@H]1C[C@@](CC(=O)O)(C3)C2)N1CCN(c2ccc(C(F)(F)F)cn2)CC1` [{(E)-4-[(2-methyl-2-{4-[5-(trifluoromethyl)pyridin-2-yl]piperazin-1-yl}propanoyl)amino]-1-adamantyl}acetic acid], the IC50 is 80 nM in test [1] (human enzyme, SPA) and over 10000 nM against human 11β-HSD-2.

In the case of `CC(C)(C(=O)N[C@@H]1[C@@H]2C[C@@H]3C[C@H]1C[C@@](C(N)=O)(C3)C2)N1CCN(c2ccccn2)CC1` [(E)-4-{[2-methyl-2-(4-pyridin-2-ylpiperazin-1-yl)propanoyl]amino}adamantane-1-carboxamide], the IC50 in test [1] (human enzyme, SPA) was 37 nM; on human 11β-HSD-2 it was over 30000 nM.

In the case of `O=C(CN1CCN(c2ccc(C(F)(F)F)cn2)CC1)NC1C2CC3CC1CC(F)(C3)C2` (centres unmarked) [N-[(E)-5-fluoro-2-adamantyl]-2-{4-[5-(trifluoromethyl)pyridin-2-yl]piperazin-1-yl}acetamide], the IC50 was 140 nM in test [1] and over 10000 nM on human 11β-HSD-2.

Consider `CC(C(=O)NC1C2CC3CC1CC(NS(C)(=O)=O)(C3)C2)N1CCN(c2ccc(C(F)(F)F)cn2)CC1` (centres unmarked) [N-{(E)-5-[(methylsulfonyl)amino]-2-adamantyl}-2-{4-[5-(trifluoromethyl)pyridin-2-yl]piperazin-1-yl}propanamide], for which the IC50 is 67 nM in test [1] (human enzyme, SPA) and over 30000 nM on human 11β-HSD-2.

For `CC1(C)C(=O)N(C2CCCCCC2)CC1COc1ccccc1` (centres unmarked) [1-cycloheptyl-3,3-dimethyl-4-(phenoxymethyl)pyrrolidin-2-one], the half-inhibitory concentration (IC50) is 95 nM in test [1] (human enzyme, SPA) and over 8750 nM on human 11β-HSD-2.

In the case of `CC1(C(=O)N[C@@H]2[C@@H]3C[C@@H]4C[C@H]2C[C@@](C(N)=O)(C4)C3)CCN(Cc2ccccc2Cl)C1=O` (some centres unmarked) [(E)-4-(aminocarbonyl)-2-adamantyl]-1-(2-chlorobenzyl)-3-methyl-2-oxopyrrolidine-3-carboxamide], the IC50 is 23 nM in test [1] (human enzyme, SPA) and 6300 nM against human 11β-HSD-2.

`CC(C)(Oc1ccc(Cl)cc1)C(=O)NC1C2CC3CC1CC(Cc1nn[nH]n1)(C3)C2` (centres unmarked) [2-(4-chlorophenoxy)-2-methyl-N-[(E)-5-(2H-tetraazol-5-ylmethyl)-2-adamantyl]propanamide]: the half-inhibitory concentration (IC50) was 41 nM in test [1] (human enzyme, SPA) and over 100000 nM at human 11β-HSD-2.

On to `CC1(C)C(=O)N(C2C3CC4CC2CC(C(N)=O)(C4)C3)CC1COc1ccc(-n2cncn2)cc1` (centres unmarked) [(E)-4-(3,3-dimethyl-2-oxo-4-{[4-(1H-1,2,4-triazol-1-yl)phenoxy]methyl}pyrrolidin-1-yl) adamantane-1-carboxamide], for which the IC50 was determined as 41 nM in test [1] and 1600 nM at human 11β-HSD-2.

Take `Cc1ccccc1CN1CCC(C)(C(=O)NC2C3CC4CC(C3)C(C(N)=O)C2C4)C1=O` (centres unmarked) [(E)-4-(aminocarbonyl)-2-adamantyl]-3-methyl-1-(2-methylbenzyl)-2-oxopyrrolidine-3-carboxamide]: the IC50 in test [1] (human enzyme, SPA) amounted to 23 nM; at human 11β-HSD-2, 12000 nM.

Regarding `CC(C)(Oc1ccc(OC(F)(F)F)cc1)C(=O)NC1C2CC3CC1CC(C(N)=O)(C3)C2` (centres unmarked) [(E)-4-({2-methyl-2-[4-(trifluoromethoxy)phenoxy]propanoyl}amino)adamantane-1-carboxamide], the IC50 in test [1] (human enzyme, SPA) is 40 nM; against human 11β-HSD-2 it was 2600 nM.

Regarding `NC(=O)OC12CC3CC(C1)C(NC(=O)CN1CCN(c4ccc(C(F)(F)F)cn4)CC1)C(C3)C2` (centres unmarked) [(E)-4-[({4-[5-(trifluoromethyl)pyridin-2-yl]piperazin-1-yl}acetyl)amino]-1-adamantyl carbamate], the IC50 in test [1] (human enzyme, SPA) is 150 nM; against human 11β-HSD-2, over 10000 nM.

`CC12CCC(N3CC(COc4ccc(C#N)cn4)C(C)(C)C3=O)(CC1)CC2` (centres unmarked) [6-{[4,4-dimethyl-1-(4-methylbicyclo[2.2.2]oct-1-yl)-5-oxopyrrolidin-3-yl]methoxy}nicotinonitrile]: the IC50 turned out to be 77 nM in test [1] (human enzyme, SPA) and 8470 nM at human 11β-HSD-2.

With `CC(C(=O)N[C@@H]1[C@@H]2C[C@@H]3C[C@H]1C[C@@](O)(C3)C2)N1C[C@@H](C)O[C@@H](C)C1` (stereo partly drawn) [2-[(cis)-2,6-dimethylmorpholin-4-yl]-N-[(E)-5-hydroxy-2-adamantyl]propanamide], the IC50 in test [1] (human enzyme, SPA) is 110 nM; at human 11β-HSD-2, over 10000 nM.

For `CC(C)(C(=O)N[C@@H]1[C@@H]2C[C@@H]3C[C@H]1C[C@@](C(=O)O)(C3)C2)c1ccccc1` [(E)-4-(2-methyl-2-phenyl-propionylamino)-adamantane-1-carboxylic acid], the IC50 in test [1] (human enzyme, SPA) was 82 nM; against human 11β-HSD-2, over 10000 nM.

Turning to `CC(C)(Oc1cccc(C(F)(F)F)c1)C(=O)NC1C2CC3CC1CC(C(N)=O)(C3)C2` (centres unmarked) [(E)-4-({2-methyl-2-[3-(trifluoromethyl)phenoxy]propanoyl}amino)adamantane-1-carboxamide], the half-inhibitory concentration (IC50) was 44 nM in test [1] (human enzyme, SPA) and 11000 nM against human 11β-HSD-2.

With `CC1(C)C(=O)N(C2C3CC4CC2CC(C#N)(C4)C3)CC1COc1ccc(C#N)cn1` (centres unmarked) [(E)-4-(4-{[(5-cyanopyridin-2-yl)oxy]methyl}-3,3-dimethyl-2-oxopyrrolidin-1-yl) adamantane-1-carbonitrile], the IC50 is 29 nM in test [1] (human enzyme, SPA) and 5270 nM against human 11β-HSD-2.
